US9079866B2, “Flap modulators” (JANSSEN PHARMACEUTICA NV, priority 2013, dated 2015)
Like-named read-outs stand apart in the source and are kept apart here.

What was measured:
[1] = test system: leukotriene pathway in human whole blood (LTB4 levels); assay: Human whole blood assay (A23187-stimulated LTB4); format: cell-based; settings: human whole blood diluted 1:1 in RPMI, A23187-stimulated LTB4, read-out: LTB4 IC50 1:1
In short: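 Heparinised human whole blood, diluted 1:1 in RPMI, was pre-incubated with test compounds for 15 min at 37° Celsius, then stimulated with A23187 (7 μg/mL) for 30 min at 37° Celsius. Plasma LTB4 was measured by immunoassay kit; IC50 from 4-parameter fit; single replicate, at least one healthy donor.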

human FLAP = human FLAP (Homo sapiens (Human), UniProt P20292); assay: FLAP binding assay (HTRF format)
Chain of human FLAP (P20292 whole entry): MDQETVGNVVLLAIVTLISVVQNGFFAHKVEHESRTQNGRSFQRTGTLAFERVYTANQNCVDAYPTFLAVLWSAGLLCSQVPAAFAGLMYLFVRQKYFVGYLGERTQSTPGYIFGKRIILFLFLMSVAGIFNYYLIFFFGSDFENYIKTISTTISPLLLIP
In short: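 Read-out is the HTRF ratio. Each reported figure averages two assay plates on which samples were tested in duplicate.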

[2] = human FLAP wild type, HTRF format, average of two plates, duplicates
[3] = read-out: FLAP Binding wild type HTRF Ki

Row | SMILES | IC50 ([1]; Homo sapiens) [nM] | Ki (human FLAP; [2]) [nM] | IC50 [1] [nM] | Ki (human FLAP; [3]) [nM]
1 | CS(=O)(=O)Nc1ccccc1-c1ccc(-c2cnc(N)cn2)c(F)c1 [Example 2, N-[4′-(5-Aminopyrazin-2-yl)-3′-fluorobiphenyl-2-yl]methanesulfonamide] | 358 | 286 | – | –
2 | CC(C)(C)NS(=O)(=O)c1ccccc1-c1ccc(-c2cnc(N)cn2)c(F)c1 [Example 4, 4′-(5-Aminopyrazin-2-yl)-N-tert-butyl-3′-fluorobiphenyl-2-sulfonamide] | 18 | 1 | – | –
3 | Nc1cnc(-c2ccc(-c3ccccc3S(=O)(=O)NC3CCCCC3)cc2F)cn1 [Example 6, 4′-(5-Aminopyrazin-2-yl)-N-cyclohexyl-3′-fluorobiphenyl-2-sulfonamide] | 33 | 1 | – | –
4 | CC(C)CNS(=O)(=O)c1ccccc1-c1ccc(-c2cnc(N)cn2)c(F)c1 [Example 7, 4′-(5-Aminopyrazin-2-yl)-3′-fluoro-N-(2-methylpropyl)biphenyl-2-sulfonamide] | 14 | 2 | – | –
5 | Nc1cnc(-c2ccc(-c3ccccc3S(=O)(=O)NCC3CCC3)cc2F)cn1 [Example 9, 4′-(5-Aminopyrazin-2-yl)-N-(cyclobutylmethyl)-3′-fluorobiphenyl-2-sulfonamide] | 60 | 3 | – | –
6 | CC1(NS(=O)(=O)c2ccccc2-c2ccc(-c3cnc(N)cn3)c(F)c2)CCC1 [Example 11, 4′-(5-Aminopyrazin-2-yl)-3′-fluoro-N-(1-methylcyclobutyl)biphenyl-2-sulfonamide] | 15 | 2 | – | –
7 | CCC(C)(C)NS(=O)(=O)c1ccccc1-c1ccc(-c2cnc(N)cn2)c(F)c1 [Example 12, 4′-(5-Aminopyrazin-2-yl)-N-(1,1-dimethylpropyl)-3′-fluorobiphenyl-2-sulfonamide] | 21 | 2 | – | –
8 | CC(C)(NS(=O)(=O)c1ccccc1-c1ccc(-c2cnc(N)cn2)c(F)c1)C(F)(F)F [Example 13, 4′-(5-Aminopyrazin-2-yl)-3′-fluoro-N-(2,2,2-trifluoro-1,1-dimethylethyl)biphenyl-2-sulfonamide] | 18 | – | – | 1
9 | Nc1cnc(-c2ccc(-c3ccccc3S(=O)(=O)NC3CCCC3)cc2F)cn1 [Example 14, 4′-(5-Aminopyrazin-2-yl)-N-cyclopentyl-3′-fluorobiphenyl-2-sulfonamide] | 32 | 3 | – | –
10 | CNS(=O)(=O)c1ccccc1-c1ccc(-c2cnc(N)cn2)c(F)c1 [Example 15, 4′-(5-Aminopyrazin-2-yl)-3′-fluoro-N-methylbiphenyl-2-sulfonamide] | 59 | 10 | – | –
11 | CCNS(=O)(=O)c1ccccc1-c1ccc(-c2cnc(N)cn2)c(F)c1 [Example 16, 4′-(5-Aminopyrazin-2-yl)-N-ethyl-3′-fluorobiphenyl-2-sulfonamide] | 18 | 6 | – | –
12 | C[C@@H](NS(=O)(=O)c1ccccc1-c1ccc(-c2cnc(N)cn2)c(F)c1)C(F)(F)F [Example 20, (S)-4′-(5-Aminopyrazin-2-yl)-3′-fluoro-N-[(1S)-2,2,2-trifluoro-1-methylethyl]biphenyl-2-sulfonamide] | – | 1 | 9 | –
13 | Nc1cnc(-c2ccc(-c3ccccc3S(=O)(=O)N[C@@H]3CCc4ccccc43)cc2F)cn1 [Example 23, (R)-4′-(5-Aminopyrazin-2-yl)-N-[(1R)-2,3-dihydro-1H-inden-1-yl]-3′-fluorobiphenyl-2-sulfonamide] | 13 | 1 | – | –
14 | Nc1cnc(-c2ccc(-c3ccccc3S(=O)(=O)Nc3ccccc3)cc2F)cn1 [Example 26, 4′-(5-Aminopyrazin-2-yl)-3′-fluoro-N-phenylbiphenyl-2-sulfonamide] | 26 | 1 | – | –
15 | CCN1CCCC[C@@H](NS(=O)(=O)c2ccccc2-c2ccc(-c3cnc(N)cn3)c(F)c2)C1=O [Example 27, (S)-4′-(5-Aminopyrazin-2-yl)-N-[(3S)-1-ethyl-2-oxoazepan-3-yl]-3′-fluorobiphenyl-2-sulfonamide] | 10000 | 29 | – | –
16 | CC(C)S(=O)(=O)Nc1ccccc1-c1ccc(-c2cnc(N)cn2)c(F)c1 [Example 34, N-(4′-(5-Aminopyrazin-2-yl)-3′-fluoro-[1,1′-biphenyl]-2-yl)propane-2-sulfonamide] | 334 | 31 | – | –
17 | CCCS(=O)(=O)Nc1ccccc1-c1ccc(-c2cnc(N)cn2)c(F)c1 [Example 36, N-[4′-(5-Aminopyrazin-2-yl)-3′-fluorobiphenyl-2-yl]propane-1-sulfonamide] | 120 | – | – | 10
18 | CC(C)CS(=O)(=O)Nc1ccccc1-c1ccc(-c2cnc(N)cn2)c(F)c1 [Example 37, N-[4′-(5-Aminopyrazin-2-yl)-3′-fluorobiphenyl-2-yl]-2-methylpropane-1-sulfonamide] | 676 | 30 | – | –
19 | Nc1cnc(-c2ccc(-c3ccccc3NS(=O)(=O)C3CCC3)cc2F)cn1 [Example 40, N-(4′-(5-Aminopyrazin-2-yl)-3′-fluoro-[1,1′-biphenyl]-2-yl)cyclobutanesulfonamide] | 112 | 14 | – | –
20 | CN(C)S(=O)(=O)c1ccccc1-c1ccc(-c2cnc(N)cn2)c(F)c1 [Example 42, 4′-(5-Aminopyrazin-2-yl)-3′-fluoro-N,N-dimethylbiphenyl-2-sulfonamide] | 149 | 11 | – | –
21 | Nc1cnc(-c2ccc(-c3ccccc3S(=O)(=O)N3CCCCC3)cc2F)cn1 [Example 43, 5-[3-Fluoro-2′-(piperidin-1-ylsulfonyl)biphenyl-4-yl]pyrazin-2-amine] | 111 | 2 | – | –
22 | Nc1cnc(-c2ccc(-c3ccccc3S(=O)(=O)N3CCOCC3)cc2F)cn1 [Example 44, 5-[3-Fluoro-2′-(morpholin-4-ylsulfonyl)biphenyl-4-yl]pyrazin-2-amine] | 58 | 7 | – | –

The remaining compounds from weak to strong by Ki (human FLAP; [2]), led by results:

Row | IC50 ([1]; Homo sapiens) [nM] | Ki (human FLAP; [2]) [nM] | IC50 [1] [nM] | SMILES | Ki (human FLAP; [3]) [nM]
23 | 30 | 59 | – | CN1CCCC[C@@H](NS(=O)(=O)c2ccccc2-c2ccc(-c3cnc(N)cn3)c(F)c2)C1=O [Example 29, (S)-4′-(5-Aminopyrazin-2-yl)-3′-fluoro-N-[(3S)-1-methyl-2-oxoazepan-3-yl]biphenyl-2-sulfonamide] | –
24 | 194 | 57 | – | Nc1cnc(-c2ccc(-c3ccccc3S(=O)(=O)N3CCNCC3)cc2F)cn1 [Example 46, 5-[3-Fluoro-2′-(piperazin-1-ylsulfonyl)biphenyl-4-yl]pyrazin-2-amine] | –
25 | 94 | 36 | – | CCS(=O)(=O)Nc1ccccc1-c1ccc(-c2cnc(N)cn2)c(F)c1 [Example 35, N-[4′-(5-Aminopyrazin-2-yl)-3′-fluorobiphenyl-2-yl]ethanesulfonamide] | –
26 | 370 | 35 | – | Nc1cnc(-c2ccc(-c3ccccc3S(N)(=O)=O)cc2F)cn1 [Example 5, 4′-(5-Aminopyrazin-2-yl)-3′-fluorobiphenyl-2-sulfonamide] | –
27 | 177 | 33 | – | Nc1cnc(-c2ccc(-c3ccccc3NS(=O)(=O)C3CC3)cc2F)cn1 [Example 38, N-(4′-(5-aminopyrazin-2-yl)-3′-fluoro-[1,1′-biphenyl]-2-yl)cyclopropanesulfonamide] | –
28 | 2690 | 14 | – | Nc1cnc(-c2ccc(-c3ccccc3NS(=O)(=O)C(F)(F)F)cc2F)cn1 [Example 41, [4′-(5-Aminopyrazin-2-yl)-3′-fluorobiphenyl-2-yl]-1,1,1-trifluoromethanesulfonamide] | –
29 | 158 | 11 | – | Nc1cnc(-c2ccc(-c3ccccc3S(=O)(=O)N3CCCC3)cc2F)cn1 [Example 48, 5-[3-Fluoro-2′-(pyrrolidin-1-ylsulfonyl)biphenyl-4-yl]pyrazin-2-amine] | –
30 | 75 | 8 | – | CCCCCCS(=O)(=O)Nc1ccccc1-c1ccc(-c2cnc(N)cn2)c(F)c1 [Example 39, N-[4′-(5-Aminopyrazin-2-yl)-3′-fluorobiphenyl-2-yl]hexane-1-sulfonamide] | –
31 | 36 | 4 | – | Nc1cnc(-c2ccc(-c3ccccc3S(=O)(=O)Nc3cccnc3)cc2F)cn1 [Example 31, 4′-(5-Aminopyrazin-2-yl)-3′-fluoro-N-pyridin-3-ylbiphenyl-2-sulfonamide] | –
32 | 10 | 3 | – | Nc1cnc(-c2ccc(-c3ccccc3S(=O)(=O)N3CCS(=O)(=O)CC3)cc2F)cn1 [Example 45, 5-{2′-[(1,1-Dioxidothiomorpholin-4-yl)sulfonyl]-3-fluorobiphenyl-4-yl}pyrazin-2-amine] | –
33 | 25 | 2 | – | Nc1cnc(-c2ccc(-c3ccccc3S(=O)(=O)NCCc3ccccc3)cc2F)cn1 [Example 17, 4′-(5-Aminopyrazin-2-yl)-3′-fluoro-N-(2-phenylethyl)biphenyl-2-sulfonamide] | –
34 | 70 | 2 | – | Nc1cnc(-c2ccc(-c3ccccc3S(=O)(=O)N[C@H](c3ccccc3)C(F)(F)F)cc2F)cn1 [Example 18, (R)-4′-(5-Aminopyrazin-2-yl)-3′-fluoro-N-[(1R)-2,2,2-trifluoro-1-phenylethyl]biphenyl-2-sulfonamide] | –
35 | 50 | 2 | – | Nc1cnc(-c2ccc(-c3ccccc3S(=O)(=O)N[C@@H](c3ccccc3)C(F)(F)F)cc2F)cn1 [Example 19, (S)-4′-(5-Aminopyrazin-2-yl)-3′-fluoro-N-[(1S)-2,2,2-trifluoro-1-phenylethyl]biphenyl-2-sulfonamide] | –
36 | 17 | 1 | – | CCN(CC)S(=O)(=O)c1ccccc1-c1ccc(-c2cnc(N)cn2)c(F)c1 [Example 47, 4′-(5-Aminopyrazin-2-yl)-N,N-diethyl-3′-fluorobiphenyl-2-sulfonamide] | –
